Tested on: Spodoptera frugiperda
Assay: Antifeedant activity against final instar larvae of Spodoptera frugiperda assessed as antifeedant index at 1000 ppm
Format: functional

C/C=C(\C)C(=O)O[C@@H]1[C@H]2C(=O)[C@](C)([C@H]3CC[C@]4(C)[C@@H](CC(=O)O[C@H]4c4ccco4)[C@]34O[C@H]24)[C@@H]([C@@H](OC(C)=O)C(=O)OC)C1(C)C [swietemahonin F]
Activity: 70.2%

Source: ChEMBL document CHEMBL1144137, “Limonoids from Swietenia macrophylla and S. aubrevilleana” (1999)
